# BindingDB's records for doi:10.1021/jm00160a026 (1986)
# pIC50: −log10 of the molar value.
# Target: Angiotensin-converting enzyme (Cavia porcellus)
# Assay: Inhibition of guinea pig angiotensin I converting enzyme
row,Compound,pIC50
1,CCOC(=O)C(CCc1ccccc1)N(C)C(C)C(=O)N1Cc2ccccc2CC1C(=O)O (centres undefined),< 5.00
2,CC(=O)SCCC(=O)N1Cc2ccccc2C1C(=O)O (centres undefined),4.66
3,CC(=O)SCC(C)C(=O)N1Cc2ccccc2C1C(=O)O (mixture of isomers),4.62
4,O=C(O)C1c2ccccc2CN1C(=O)CCS (centres undefined),4.24
5,CCOC(=O)C(CCc1ccccc1)NC(C)C(=O)N1Cc2cc(OC)c(OC)cc2CC1C(=O)OCC (centres undefined),6.28
6,CC(=O)SCC(C)C(=O)N1CCc2ccccc2C1 (centres undefined),4.31
7,CC(CS)C(=O)N1CCc2ccccc2C1 (centres undefined),4.32
8,CCOC(=O)[C@H](CCc1ccccc1)N[C@@H](C)C(=O)N1Cc2ccccc2[C@@H]1C(=O)O,< 6.00

# Stronger by pIC50, values ahead:
row,pIC50,Compound
1,6.36,CCOC(=O)C(CCc1ccccc1)NC(C)C(=O)N1Cc2ccccc2CC1C(=O)OCC (centres undefined)
2,6.52,CCOC(=O)C(CCc1ccccc1)NC(C)C(=O)N1Cc2cc(OC)c(OC)cc2CC1C(=O)OCc1ccccc1 (centres undefined)
3,6.89,CC(=O)SCC(C)C(=O)N1Cc2ccccc2CC1C(=O)O (racemic)
4,7.36,CCOC(=O)[C@H](CCc1ccccc1)N[C@@H](C)C(=O)N1Cc2ccccc2[C@H]1C(=O)O
5,8.24,CC(NC(CCc1ccccc1)C(=O)O)C(=O)N1CCc2ccccc2C1C(=O)O (centres undefined)
6,8.51,CC(NC(CCc1ccccc1)C(=O)O)C(=O)N1Cc2ccccc2C1C(=O)O (centres undefined)
